Experimental data taken from patent US20260224716A1, “PTH ANALOGS FOR THE TREATMENT OF HYPOPARATHYROIDISM” (priority 2020, published 2026).
Values joined by “and” are separate entries in the source; they are usually repeats but may differ in a detail not shown here. Equal entries are not always repeated. Where a SMILES comes first, the peptide text is derived from it. [ ]: non-standard residue; d: D form. NMeH = CN[C@@H](Cc1c[nH]cn1)C(=O)O; Aib = CC(C)(N)C(=O)O

Experiments:
[1] = Rate of model dipeptide cleavage from hexapeptide in PBS (HPLC, LC-MS); assay type: physicochemical; conditions: buffer
Experimental: The solution was incubated at 37° C.
The flow rate was 1 ml/min.

PTH1 receptor = target: T1, PTH1 receptor (Homo sapiens, UniProt Q03431); test: Luciferase-based reporter gene assay for cAMP detection (HEK293 cells); assay type: cell-based; conditions: FIG. 4; luciferase reporter of cAMP production
T1 construct: expressed in transfected cells; host or cells: HEK293
T1 sequence (Q03431 27-593): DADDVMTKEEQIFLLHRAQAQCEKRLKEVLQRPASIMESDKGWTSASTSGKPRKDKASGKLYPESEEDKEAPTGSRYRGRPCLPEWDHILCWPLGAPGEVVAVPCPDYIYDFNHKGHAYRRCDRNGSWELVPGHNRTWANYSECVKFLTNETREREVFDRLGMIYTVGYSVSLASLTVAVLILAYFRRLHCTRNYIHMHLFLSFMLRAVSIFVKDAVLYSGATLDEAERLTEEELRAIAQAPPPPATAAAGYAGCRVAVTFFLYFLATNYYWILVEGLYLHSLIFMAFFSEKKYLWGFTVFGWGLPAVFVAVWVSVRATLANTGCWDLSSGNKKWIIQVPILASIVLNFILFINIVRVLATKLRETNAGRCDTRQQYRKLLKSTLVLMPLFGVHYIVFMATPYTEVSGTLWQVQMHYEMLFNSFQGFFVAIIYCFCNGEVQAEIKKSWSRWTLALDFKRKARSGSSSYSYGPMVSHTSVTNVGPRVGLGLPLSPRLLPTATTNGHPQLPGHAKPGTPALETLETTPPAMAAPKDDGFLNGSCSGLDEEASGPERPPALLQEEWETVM
Experimental: At the end of the incubation, 50 μL of Steady-Lite Plus (PerkinElmer, Waltham, MA) were added to each well. The plate was shaken briefly, incubated four minutes and light output was measured on an EnSpire Alpha Multi-mode Plate Reader (PerkinElmer, Waltham, MA).

PTHR1 = target: T2, PTHR1 (Homo sapiens, UniProt Q03431); test: cAMP Hunter Teriparatide Bioassay (CHO-K1 PTHR1 cells); assay type: cell-based
T2 construct: host or cells: CHO-K1
T2 sequence (Q03431 27-593): T1 sequence (Q03431 27-593)

serum calcium [2] = test: Pharmacology in normal mice: serum calcium (Example 6); assay type: in vivo, C57Bl6/J mice; conditions: FIG. 5C, 20 or 40 nmol/kg SC, 24 and 48 hours
Experimental: Each group of mice was bled immediately before the injection and after 24 and 48 hours. Blood was centrifuges and serum was collected and stored at −20 C. Calcium concentrations were determined used commercially available assays following the manufacturer's instructions.

serum calcium [3] = test: Serum calcium in mice after single subcutaneous SEQ ID NO: 77 (Example 9); assay type: in vivo, C57BL/6J mice; conditions: for Percent change of serum Ca levels: 24 hr vs 0 hr
Experimental: Absorbance (Ab) was measured at 650 nm wavelength. Manufacturer linearity is provided up to 15 mg/dl. […] This difference was statistically significant at 24 hours when accounting for the initial baseline levels (FIG. 14B). There was an increase in serum Ca at 24 hours following the dose of 40 nmol/kg.

serum calcium [4] = test: Serum calcium in rats, repeat daily dosing 7 days (Example 13); assay type: in vivo, Sprague-Dawley rats; conditions: daily SC 7 days; SEQ ID NO: 77 20 nmol/kg, SEQ ID NO: 87 20 or 40 nmol/kg; returned to initial values after washout
Experimental: (§1) Female Sprague-Dawley rats were single or double-housed and randomly assigned to four groups (n=5-6 per group) as described in Table 20, and then weighed.
(§2) After the treatment ceased, the animals were monitored on days 9 and 11 (washout period).
(§3) Body weight and food intake were measured on days 0, 1, 3, 5 and 7. Ca was measured on days 0, 1, 2, 3, 4, 7, 9 and 11. Pi was determined on the same samples, except for days 9 and 11.

serum phosphate = test: Serum phosphate in rats, repeat daily dosing 7 days (Example 13); assay type: in vivo, Sprague-Dawley rats; conditions: daily SC, SEQ ID NO: 77 20 nmol/kg
Experimental: as §1, §2, §3

[5] = Plasma drug levels in rats, repeat daily dosing 7 days, LCMS (Example 13); assay type: in vivo, Sprague-Dawley rats; conditions: daily SC dosing
Experimental: as §1, §2, §3

[6] = Pharmacokinetics of SEQ ID 87 in monkeys, single subcutaneous dose (Example 17); assay type: in vivo, cynomolgus monkeys
Experimental: A total of three monkeys were used at each test dose. The monkeys ranged in age from 2-4 years old at beginning of the study and having a weight of at least 2.5 kg. The dose volume was 0.3 mL/kg. Individual dose volumes were calculated based on the animals' most recently recorded body weight.
Animals were not fasted prior to collection. Blood was be collected via the femoral vein (or another appropriate site). Blood samples were maintained at 5±3° C. (wet ice or equivalent) and centrifuged at 5±3° C. within 1 hour of the collection of each blood sample. The resultant plasma was transferred to a tube and then stored under conditions set to maintain −75±15° C. until analysis.
Pharmacokinetic mean concentration-time data was analyzed using non-compartmental methods (Phoenix® WinNonlin® Version 7.0 or higher) based on the route of administration. The following parameters were calculated whenever possible and as data allows: Cmax, Tmax, and AUC. Descriptive statistics were generated using Phoenix WinNonlin.

[7] = Pharmacokinetics in rats after single subcutaneous dose, LCMS (Example 10)
Source text: Female Sprague-Dawley rats were randomly distributed among four groups with five or six rats per group. […] Dose volume was based on body weight and recorded prior to dosing.

[8] = test system: calcium urinary excretion; conditions: humans, 100 ug subcutaneous; adequate control limited to only ⅓ of the day; cited from earlier work
[9] = rats, SEQ ID NO: 77 30 nmol/kg SC
[10] = rats, after SEQ ID NO: 87 30 nmol/kg SC

Molecule: C[C@H](NC(=O)[C@@H]1CCCN1C(=O)C(C)(C)N)C(=O)N[C@@H](CO)C(=O)N[C@@H](CCCNC(=N)N)C(=O)NCC(=O)N[C@H](C(=O)N[C@@H](Cc1ccccc1)C(N)=O)[C@@H](C)O [compound 22] (H-[Aib]PASRGTF-NH2)
- half-life at 1 mg/ml [1]: 58 h

Molecule: CC[C@H](C)[C@H](NC(=O)[C@H](CCC(=O)O)NC(=O)[C@H](CO)NC(=O)[C@@H](NC(=O)[C@@H](N)CO)C(C)C)C(=O)N[C@@H](CCC(N)=O)C(=O)N[C@@H](CC(C)C)C(=O)N[C@@H](CCSC)C(=O)N[C@@H](Cc1c[nH]cn1)C(=O)N[C@@H](CC(N)=O)C(=O)N[C@@H](CC(C)C)C(=O)NCC(=O)N[C@@H](CCCCN)C(=O)N[C@@H](Cc1c[nH]cn1)C(=O)N[C@@H](CC(C)C)C(=O)N[C@@H](CC(N)=O)C(=O)N[C@@H](CO)C(=O)N[C@@H](CCSC)C(=O)N[C@@H](CCC(=O)O)C(=O)N[C@@H](CCCNC(=N)N)C(=O)N[C@H](C(=O)N[C@@H](CCC(=O)O)C(=O)N[C@@H](Cc1c[nH]c2ccccc12)C(=O)N[C@@H](CC(C)C)C(=O)N[C@@H](CCCNC(=N)N)C(=O)N[C@@H](CCCCN)C(=O)N[C@@H](CCCCN)C(=O)N[C@@H](CC(C)C)C(=O)N[C@@H](CCC(N)=O)C(=O)N[C@@H](CC(=O)O)C(=O)N[C@H](C(=O)N[C@@H](Cc1c[nH]cn1)C(=O)N[C@@H](CCCCNC(=O)CC[C@H](NC(=O)COCCOCCNC(=O)COCCOCCNC(=O)CC[C@H](NC(=O)CCCCCCCCCCCCCCCCC(=O)O)C(=O)O)C(=O)O)C(=O)O)C(C)C)C(C)C [SEQ ID NO: 77]
- potency at the PTH receptor (PTH1 receptor): retains the high potency
- EC50 (PTHR1; FIG. 11, active drug): 0.01 nM
- Hillslope (PTHR1; FIG. 11, active drug): 1.874
- EC50 (PTHR1; FIG. 12): 0.0366 nM
- Hillslope (PTHR1; FIG. 12): 2.237
- EC50 (PTHR1; FIG. 13A): 0.0107 nM
- Hillslope (PTHR1; FIG. 13A): 2.687
- EC50 (PTHR1; FIG. 13B): 0.0193 nM
- Hillslope (PTHR1; FIG. 13B): 2.687
- PTH agonism (PTHR1; conclusions from Table 14, FIGS. 8A-8C): inactivates the PTH agonism
- effect on serum calcium levels (serum calcium [2]): increase serum calcium levels
- Percent change of serum Ca levels (serum calcium [3]; 20 nmol/kg SC): 13.8%
- Serum Ca change (serum calcium [3]; 20 nmol/kg SC, 24 hr vs 0 hr (nmol/ul)): 0.3131
- Serum Ca change (serum calcium [3]; 20 nmol/kg SC, 48 hr vs 0 hr): 0.0709
- serum Ca levels compared to controls or 20 nmol/kg (serum calcium [3]; 40 nmol/kg SC, 24 and 48 hours post treatment): significantly increased serum Ca levels
- Percent change of serum Ca levels (serum calcium [3]; 40 nmol/kg SC): 26.2%
- Serum Ca change (serum calcium [3]; 40 nmol/kg SC, 24 hr vs 0 hr (nmol/uL)): 0.631
- Serum Ca change (serum calcium [3]; 40 nmol/kg SC, 48 hr vs 0 hr): 0.073
- Serum Calcium Conc., individual mouse (serum calcium [3]; Group F (20 nmol/kg by match with Table 11), 0 hour): 8.9502 mg/dl and 2.2375 nmol/uL and 8.8662 mg/dl and 2.2165 nmol/uL and 9.3810 mg/dl and 2.3453 nmol/uL and 9.3774 mg/dl and 2.3443 nmol/uL and 10.2136 mg/dl and 2.5534 nmol/uL and 9.6513 mg/dl and 2.4128 nmol/uL and 8.7165 mg/dl and 2.1791 nmol/uL and 7.4968 mg/dl and 1.8742 nmol/uL
- Serum Calcium Conc., individual mouse (serum calcium [3]; Group F (20 nmol/kg by match with Table 11), 24 hours): 9.1693 mg/dl and 2.2923 nmol/uL and 9.4988 mg/dl and 2.3747 nmol/uL and 9.8423 mg/dl and 2.4606 nmol/uL and 11.4721 mg/dl and 2.8680 nmol/uL and 10.9604 mg/dl and 2.7401 nmol/uL and 10.4767 mg/dl and 2.6192 nmol/uL and 9.1062 mg/dl and 2.2766 nmol/uL and 12.1451 mg/dl and 3.0363 nmol/uL
- Serum Calcium Conc., individual mouse (serum calcium [3]; Group F (20 nmol/kg by match with Table 11), 48 hours): 8.8303 mg/dl and 2.2076 nmol/uL and 9.1467 mg/dl and 2.2867 nmol/uL and 8.8431 mg/dl and 2.2108 nmol/uL and 7.3666 mg/dl and 1.8416 nmol/uL and 8.7057 mg/dl and 2.1764 nmol/uL and 9.7411 mg/dl and 2.4353 nmol/uL and 8.7472 mg/dl and 2.1868 nmol/uL and 9.0029 mg/dl and 2.2507 nmol/uL
- Serum Calcium Conc., individual mouse (serum calcium [3]; Group G (40 nmol/kg by match with Table 11), 0 hour): 9.4650 mg/dl and 2.3663 nmol/uL and 10.0310 mg/dl and 2.5078 nmol/uL and 9.9105 mg/dl and 2.4776 nmol/uL and 8.8662 mg/dl and 2.2165 nmol/uL and 10.1369 mg/dl and 2.5342 nmol/uL and 10.6007 mg/dl and 2.6502 nmol/uL and 9.6001 mg/dl and 2.4000 nmol/uL and 8.5266 mg/dl and 2.1316 nmol/uL
- Serum Calcium Conc., individual mouse (serum calcium [3]; Group G (40 nmol/kg by match with Table 11), 24 hours): 13.6768 mg/dl and 3.4192 nmol/uL and 11.5422 mg/dl and 2.8856 nmol/uL and 12.7305 mg/dl and 3.1826 nmol/uL and 11.5563 mg/dl and 2.8891 nmol/uL and 13.0880 mg/dl and 3.2720 nmol/uL and 11.5633 mg/dl and 2.8908 nmol/uL and 11.7070 mg/dl and 2.9267 nmol/uL and 11.4651 mg/dl and 2.8663 nmol/uL
- Serum Calcium Conc., individual mouse (serum calcium [3]; Group G (40 nmol/kg by match with Table 11), 48 hours): 10.2589 mg/dl and 2.5647 nmol/uL and 9.0764 mg/dl and 2.2691 nmol/uL and 10.0607 mg/dl and 2.5152 nmol/uL and 9.2554 mg/dl and 2.3138 nmol/uL and 9.9968 mg/dl and 2.4992 nmol/uL and 9.9425 mg/dl and 2.4856 nmol/uL and 10.6168 mg/dl and 2.6542 nmol/uL and 10.2429 mg/dl and 2.5607 nmol/uL
- serum Ca at 48 hours post treatment (serum calcium [3]; all treatments, 20 or 40 nmol/kg SC): returned to near starting levels
- Serum Ca levels during the treatment period (serum calcium [4]): gradually increased
- serum Pi on day 3 versus vehicle and SEQ ID NO: 87 40 nmol/kg (serum phosphate): differed significantly
- daily administrations to reach steady state plasma levels [5]: four
- time of peak concentration of drug formed from prodrug ([6]; after SEQ ID No 87 2.5, 3.75, 5 nmol/kg SC): 48 to 72 h
- concentration as fraction of the Cmax concentration ([6]; drug formed from prodrug, at one week): approximately ⅔
- level at time molar at 2 h ([7]; female, Sprague-Dawley, rat, serum, sc, 30 nmol/kg): > 100 nM
- time at baseline level [7, 9]: 96 h
- time of peak concentration [7, 9]: seven
- concentration as fraction of the Cmax ([7]; rats, SEQ ID NO: 77 30 nmol/kg SC, at 48 h): ⅓
- time of peak of drug formed from prodrug [7, 10]: 24 h
- time of return to baseline, drug formed from prodrug [7, 10]: one week

Molecule: C[C@@H](O)[C@H](NC(=O)CNC(=O)[C@H](CCCNC(=N)N)NC(=O)[C@H](CO)NC(=O)[C@H](Cc1c[nH]cn1)N(C)C(=O)[C@@H]1CCCN1C(=O)C(C)(C)N)C(=O)N[C@@H](Cc1ccccc1)C(N)=O [compound 23] (H-[Aib]P[NMeH]SRGTF-NH2)
- half-life at 1 mg/ml [1]: 30 h

Molecule: SVSEIQLMHNLGKHLNSMERVEWLRKKLQDVHK(γE-COC16H32CO2H)-OH [SEQ ID NO: 74]
- effect on serum calcium levels (serum calcium [2]): increase serum calcium levels

B1: Natpara: NPS/Shire's Natpara® (rhPTH), approved by the FDA in January of 2015 (protein, listed as Homo sapiens)
chain: SVSEIQLMHNLGKHLNSMERVEWLRKKLQDVHNFVALGAPLAPRDAGSQRPRKKEDNVLVESHEKSLGEADKADVNVLTKAKSQ
- duration of action on calcium [8]: insufficient duration of action
